Test results as given in PubChem BioAssay AID1919008 (Molecular Pharmacology Branch, DTP, NCI, 2023).

Tested on: DMS-114 complex spheroids with HUVEC/MSC, growth % test/control
Assay: Anticancer human tumor DMS-114 cell line growth inhibition [AhR];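 also: spheroids exposed to agents for 7 days before readout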;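 as to viability, T/C: 100% = DMSO vehicle control wells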
Conditions: for IC50: curve of first compound; for viability, T/C: stronger effect = lower value
In short: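 Complex tumor spheroids co-cultured with HUVEC and human MSC stroma; AhR antagonists tested in combination with standard-of-care and investigational agents. Top concentration at or near clinical Cmax (else 10 microM), half-log dilutions; growth expressed as percent test/control.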

[1] = second compound 0.1 µM, first compound 0.0316 µM
[2] = second compound 0.1 µM, first compound 0.1 µM
[3] = second compound 0.1 µM, first compound 0.316 µM
[4] = second compound 0.1 µM, first compound 1 µM
[5] = second compound 0.1 µM, first compound 3.16 µM
[6] = second compound 0.1 µM, first compound 10 µM
[7] = second compound 0.316 µM, first compound 0.0316 µM
[8] = second compound 0.316 µM, first compound 0.1 µM
[9] = second compound 0.316 µM, first compound 0.316 µM
[10] = second compound 0.316 µM, first compound 1 µM
[11] = second compound 0.316 µM, first compound 3.16 µM
[12] = second compound 0.316 µM, first compound 10 µM
[13] = second compound 1 µM, first compound 0.0316 µM
[14] = second compound 1 µM, first compound 0.1 µM
[15] = second compound 1 µM, first compound 0.316 µM
[16] = second compound 1 µM, first compound 1 µM
[17] = second compound 1 µM, first compound 3.16 µM
[18] = second compound 1 µM, first compound 10 µM
[19] = second compound 3.16 µM, first compound 0.0316 µM
[20] = second compound 3.16 µM, first compound 0.1 µM
[21] = second compound 3.16 µM, first compound 0.316 µM
[22] = second compound 3.16 µM, first compound 1 µM
[23] = second compound 3.16 µM, first compound 3.16 µM
[24] = second compound 3.16 µM, first compound 10 µM
[25] = second compound 10 µM, first compound 0.0316 µM
[26] = second compound 10 µM, first compound 0.1 µM
[27] = second compound 10 µM, first compound 0.316 µM
[28] = second compound 10 µM, first compound 1 µM
[29] = second compound 10 µM, first compound 3.16 µM
[30] = second compound 10 µM, first compound 10 µM

CC(C)CC(NC(=O)C(Cc1ccccc1)NC(=O)c1cnccn1)B(O)O (stereo not given) + Cc1ccccc1N=Nc1ccc(NC(=O)c2ccnn2C)c(C)c1
IC50 (second compound 0.1 µM): 5.5 nM | IC50 (second compound 0.316 µM): 6.01 nM | IC50 (second compound 1 µM): 5.87 nM | IC50 (second compound 3.16 µM): 6.14 nM | IC50 (second compound 10 µM): 5.59 nM | viability, T/C (second compound 0.1 µM, first compound 0.000949 µM): 90.3% | viability, T/C (second compound 0.1 µM, first compound 0.003 µM): 93.9% | viability, T/C (second compound 0.1 µM, first compound 0.00949 µM): 12.1% | viability, T/C (second compound 0.1 µM, first compound 0.03 µM): 0.2% | viability, T/C (second compound 0.1 µM, first compound 0.0949 µM): 0.1% | viability, T/C (second compound 0.1 µM, first compound 0.3 µM): 0.22% | viability, T/C (second compound 0.316 µM, first compound 0.000949 µM): 101% | viability, T/C (second compound 0.316 µM, first compound 0.003 µM): 99.9% | viability, T/C (second compound 0.316 µM, first compound 0.00949 µM): 17.2% | viability, T/C (second compound 0.316 µM, first compound 0.03 µM): 0.18% | viability, T/C (second compound 0.316 µM, first compound 0.0949 µM): 0.05% | viability, T/C (second compound 0.316 µM, first compound 0.3 µM): 0.48% | viability, T/C (second compound 1 µM, first compound 0.000949 µM): 94.7% | viability, T/C (second compound 1 µM, first compound 0.003 µM): 94.6% | viability, T/C (second compound 1 µM, first compound 0.00949 µM): 18.1% | viability, T/C (second compound 1 µM, first compound 0.03 µM): 0.41% | viability, T/C (second compound 1 µM, first compound 0.0949 µM): 0.28% | viability, T/C (second compound 1 µM, first compound 0.3 µM): 0.18% | viability, T/C (second compound 3.16 µM, first compound 0.000949 µM): 89.9% | viability, T/C (second compound 3.16 µM, first compound 0.003 µM): 97.8% | viability, T/C (second compound 3.16 µM, first compound 0.00949 µM): 23.4% | viability, T/C (second compound 3.16 µM, first compound 0.03 µM): 0.28% | viability, T/C (second compound 3.16 µM, first compound 0.0949 µM): 1.08% | viability, T/C (second compound 3.16 µM, first compound 0.3 µM): 0.24% | viability, T/C (second compound 10 µM, first compound 0.000949 µM): 94.3% | viability, T/C (second compound 10 µM, first compound 0.003 µM): 88.7% | viability, T/C (second compound 10 µM, first compound 0.00949 µM): 17.1% | viability, T/C (second compound 10 µM, first compound 0.03 µM): 0.65% | viability, T/C (second compound 10 µM, first compound 0.0949 µM): 0.6% | viability, T/C (second compound 10 µM, first compound 0.3 µM): 0.32%

COc1cc(Nc2ncc3c(n2)-c2ccc(Cl)cc2C(c2c(F)cccc2OC)=NC3)ccc1C(=O)O + Cc1ccccc1N=Nc1ccc(NC(=O)c2ccnn2C)c(C)c1
IC50 (second compound 0.1 µM): > 10000 nM | IC50 (second compound 0.316 µM): > 10000 nM | IC50 (second compound 1 µM): > 10000 nM | IC50 (second compound 3.16 µM): > 10000 nM | IC50 (second compound 10 µM): < 31.6 nM | viability, T/C [1]: 63% | viability, T/C [2]: 57.5% | viability, T/C [3]: 106% | viability, T/C [4]: 108% | viability, T/C [5]: 123% | viability, T/C [6]: 107% | viability, T/C [7]: 55% | viability, T/C [8]: 56.8% | viability, T/C [9]: 108% | viability, T/C [10]: 115% | viability, T/C [11]: 111% | viability, T/C [12]: 98.4% | viability, T/C [13]: 58.1% | viability, T/C [14]: 53.3% | viability, T/C [15]: 104% | viability, T/C [16]: 107% | viability, T/C [17]: 102% | viability, T/C [18]: 106% | viability, T/C [19]: 52.3% | viability, T/C [20]: 50.6% | viability, T/C [21]: 103% | viability, T/C [22]: 95.8% | viability, T/C [23]: 106% | viability, T/C [24]: 95.8% | viability, T/C [25]: 44.7% | viability, T/C [26]: 42% | viability, T/C [27]: 84.7% | viability, T/C [28]: 87.1% | viability, T/C [29]: 85% | viability, T/C [30]: 76.3%

NS(=O)(=O)OCC1CC(n2ccc3c(NC4CCc5ccccc54)ncnc32)CC1O (stereo not given) + Cc1ccccc1N=Nc1ccc(NC(=O)c2ccnn2C)c(C)c1
IC50 (second compound 0.1 µM): 229 nM | IC50 (second compound 0.316 µM): 203 nM | IC50 (second compound 1 µM): 201 nM | IC50 (second compound 3.16 µM): 228 nM | IC50 (second compound 10 µM): 215 nM | viability, T/C [1]: 137% | viability, T/C [2]: 84.8% | viability, T/C [3]: 37% | viability, T/C [4]: 18.4% | viability, T/C [5]: 19% | viability, T/C [6]: 16.1% | viability, T/C [7]: 113% | viability, T/C [8]: 73.9% | viability, T/C [9]: 34.3% | viability, T/C [10]: 22.8% | viability, T/C [11]: 17.2% | viability, T/C [12]: 16.3% | viability, T/C [13]: 119% | viability, T/C [14]: 76.7% | viability, T/C [15]: 32% | viability, T/C [16]: 23.4% | viability, T/C [17]: 21.6% | viability, T/C [18]: 17.3% | viability, T/C [19]: 128% | viability, T/C [20]: 80.9% | viability, T/C [21]: 37.6% | viability, T/C [22]: 24.1% | viability, T/C [23]: 19.9% | viability, T/C [24]: 21.3% | viability, T/C [25]: 86.5% | viability, T/C [26]: 77.5% | viability, T/C [27]: 35.9% | viability, T/C [28]: 25.7% | viability, T/C [29]: 22.4% | viability, T/C [30]: 20.1%

O=C(C=Cc1cccc(S(=O)(=O)Nc2ccccc2)c1)NO + Cc1ccccc1N=Nc1ccc(NC(=O)c2ccnn2C)c(C)c1
IC50 (second compound 0.1 µM): 1850 nM | IC50 (second compound 0.316 µM): 1720 nM | IC50 (second compound 1 µM): 1750 nM | IC50 (second compound 3.16 µM): 1660 nM | IC50 (second compound 10 µM): 1670 nM | viability, T/C [1]: 101% | viability, T/C [2]: 101% | viability, T/C [3]: 96.1% | viability, T/C [4]: 74.5% | viability, T/C [5]: 27.4% | viability, T/C [6]: 30.3% | viability, T/C [7]: 96.6% | viability, T/C [8]: 95.2% | viability, T/C [9]: 101% | viability, T/C [10]: 68.8% | viability, T/C [11]: 30.1% | viability, T/C [12]: 27.4% | viability, T/C [13]: 99% | viability, T/C [14]: 102% | viability, T/C [15]: 94.7% | viability, T/C [16]: 71.1% | viability, T/C [17]: 26.4% | viability, T/C [18]: 29.1% | viability, T/C [19]: 101% | viability, T/C [20]: 97.5% | viability, T/C [21]: 91.2% | viability, T/C [22]: 66% | viability, T/C [23]: 28.7% | viability, T/C [24]: 28.7% | viability, T/C [25]: 88.7% | viability, T/C [26]: 96.1% | viability, T/C [27]: 86.5% | viability, T/C [28]: 65.8% | viability, T/C [29]: 29.5% | viability, T/C [30]: 29.9%
